In one assay the target is T1, cloned human CCR8 receptor stably expressed in L1.2 cells (Homo sapiens, UniProt P51685).
T1 construct: expressed in transfected cells
T1 sequence (P51685 whole entry): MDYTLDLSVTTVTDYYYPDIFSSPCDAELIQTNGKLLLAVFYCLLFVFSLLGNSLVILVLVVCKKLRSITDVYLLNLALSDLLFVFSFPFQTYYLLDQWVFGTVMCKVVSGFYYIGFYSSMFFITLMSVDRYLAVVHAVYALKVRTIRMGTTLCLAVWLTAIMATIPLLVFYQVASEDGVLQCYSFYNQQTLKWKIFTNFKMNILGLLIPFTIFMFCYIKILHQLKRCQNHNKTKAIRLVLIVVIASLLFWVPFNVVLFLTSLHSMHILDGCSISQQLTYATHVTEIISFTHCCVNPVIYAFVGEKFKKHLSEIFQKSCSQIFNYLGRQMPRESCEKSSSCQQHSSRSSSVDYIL
Nature of the assay: whole cell binding screen: inhibition of biotinylated human I309 binding to CCR8 (FMAT 8100 HTS). The conditions noted are these: Ki of compounds to inhibit I-309 binding to CCR8, L1.2/hCCR8 cells, biotinylated human I-309, 10 point concentration response starting at 10 μM. In short, it runs like this:
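L1.2 murine pre-B cells stably expressing human CCR8 (4.0×10^5 cells/mL) in HBSS/HEPES/fatty-acid-free BSA/azide buffer were mixed with biotinylated human I309 and compounds for 0.5 h, read by FMAT fluorescence. 10-point curves from 10 μM final; percent inhibition normalized to no-inhibitor and 100 nM unlabeled I309 controls.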
Compound `Cc1ccccc1C(=O)Nc1ccc(S(=O)(=O)NC2CCN(C(=O)CN)CC2)c2ccccc12` [Compound C-122, N-{4-[1-(2-Amino-acetyl)-piperidin-4-ylsulfamoyl]-naphthalen-1-yl}-2-methyl-benzamide] registered a Ki of under 500 nM.
Same read-out and setting: to `CN[C@@H](C)C(=O)N1CCC(NS(=O)(=O)c2ccc(NC(=O)c3ccccc3C)c3ccccc23)CC1` [Compound C-123, (S)-2-Methyl-N-{4-[1-(2-methylamno-propionyl)-piperidin-4-ylsulfamoyl]-naphthalen-1-yl}-benzamide] belongs under 500 nM; to `Cc1ccccc1C(=O)Nc1ccc(S(=O)(=O)NC2CCN(C(=O)[C@@H]3CCCN3)CC2)c2ccccc12` [Compound C-125, (S)-2-Methyl-N-{4-[1-(pyrrolidine-2-carbonyl)-piperidin-4-ylsulfamoyl]-naphthalen-1-yl}-benzamide], under 500 nM.
Same read-out and setting: to `CCCC(=O)N1CCC(NS(=O)(=O)c2ccc(NC(=O)C3CCCCC3)c3ccccc23)CC1` [Compound D-16, Cyclohexanecarboxylic acid [4-(1-butyryl-piperidin-4-ylsulfamoyl)-naphthalen-1-yl]-amide] belongs under 500 nM; to `CCCC(=O)N1CCC(NS(=O)(=O)c2ccc(NC(=O)C3CCCC3)c3ccccc23)CC1` [Compound D-18, Cyclopentanecarboxylic acid [4-(1-butyryl-piperidin-4-ylsulfamoyl)-naphthalen-1-yl]-amide], under 500 nM.
Still for that read-out and setting: to `CCCC(=O)N1CCC(NS(=O)(=O)c2ccc(NC(=O)C3CCC3)c3ccccc23)CC1` [Compound D-19, Cyclobutanecarboxylic acid [4-(1-butyryl-piperidin-4-ylsulfamoyl)-naphthalen-1-yl]-amide] belongs under 500 nM.

Still in this assay, the particulars now being: L1.2/hCCR8 cells, biotinylated human I-309, 10 point concentration response starting at 10 μM; read-out: Ki of compounds to inhibit I-309 binding to CCR8.
`Cc1ccccc1C(=O)Nc1ccc(S(=O)(=O)NC2CCN(C(=O)[C@@H]3CCCN3C)CC2)c2ccccc12` [Compound C-124, (S)-2-Methyl-N-{4-[1-(1-methyl-pyrrolidine-2-carbonyl)-piperidin-4-ylsulfamoyl]-naphthalen-1-yl}-benzamide]: the Ki was under 500 nM.
On to `CC[C@H](N)C(=O)N1CCC(NS(=O)(=O)c2ccc(NC(=O)c3ccccc3C)c3ccccc23)CC1` [Compound C-126, (S)-N-{4-[1-(2-Amino-butyryl)-piperidin-4-ylsulfamoyl]-naphthalen-1-yl}-2-methyl-benzamide], for which the Ki is under 500 nM.
With `Cc1ccccc1C(=O)Nc1ccc(S(=O)(=O)NC2CCN(C(=O)CN3CCCC3)CC2)c2ccccc12` [Compound C-147, 2-Methyl-N-{4-[1-(2-pyrrolidin-1-yl-acetyl)-piperidin-4-ylsulfamoyl]-naphthalen-1-yl}-benzamide], the Ki was under 500 nM.
On the same count and under the same terms, then `Cc1ccccc1C(=O)Nc1ccc(S(=O)(=O)NC2CCN(C(=O)CN3CCCCC3)CC2)c2ccccc12` [Compound C-148, 2-Methyl-N-{4-[1-(2-piperidin-1-yl-acetyl)-piperidin-4-ylsulfamoyl]-naphthalen-1-yl}-benzamide], with under 30000 nM.
As to `O=C(Nc1ccc(S(=O)(=O)NC2CCNCC2)c2ccccc12)C1CCCC1` [Compound D-11, Cyclopentanecarboxylic acid [4-(piperidin-4-ylsulfamoyl)-naphthalen-1-yl]-amide], the Ki is under 30000 nM.
On the same count and under the same terms, to `O=C(Nc1ccc(S(=O)(=O)NC2CCNCC2)c2ccccc12)C1CC1` [Compound D-12, Cyclopropanecarboxylic acid [4-(piperidin-4-ylsulfamoyl)-naphthalen-1-yl]-amide] belongs under 30000 nM.
Regarding `O=C(Nc1ccc(S(=O)(=O)NC2CCNCC2)c2ccccc12)C1CCC1` [Compound D-13, Cyclobutanecarboxylic acid [4-(piperidin-4-ylsulfamoyl)-naphthalen-1-yl]-amide], the Ki is under 30000 nM.
Still for that read-out and setting: then `O=C(Nc1ccc(S(=O)(=O)NC2CCNCC2)c2ccccc12)C1CCCCC1` [Compound D-14, Cyclohexanecarboxylic acid [4-(piperidin-4-ylsulfamoyl)-naphthalen-1-yl]-amide], with under 500 nM.
On the same count and under the same terms, then `CCCC(=O)N1CCC(NS(=O)(=O)c2ccc(NC(=O)C3CC3)c3ccccc23)CC1` [Compound D-15, Cyclopropanecarboxylic acid [4-(1-butyryl-piperidin-4-ylsulfamoyl)-naphthalen-1-yl]-amide], with under 500 nM.
On the same count and under the same terms, then `CN1CCC(C(=O)Nc2ccc(S(=O)(=O)NC3CCNCC3)c3ccccc23)CC1` [Compound D-17, 1-Methyl-piperidine-4-carboxylic acid [4-(piperidin-4-ylsulfamoyl)-naphthalen-1-yl]-amide], with under 30000 nM.
On to `CCCC(=O)N1CCC(NS(=O)(=O)c2ccc(NC(=O)C3CCOCC3)c3ccccc23)CC1` [Compound D-20, Tetrahydro-pyran-4-carboxylic acid [4-(1-butyryl-piperidin-4-ylsulfamoyl)-naphthalen-1-yl]-amide], for which the Ki was under 500 nM.
`CN1CCCC(C(=O)Nc2ccc(S(=O)(=O)NC3CCNCC3)c3ccccc23)C1` [Compound D-22, 1-Methyl-piperidine-3-carboxylic acid [4-(piperidin-4-ylsulfamoyl)-naphthalen-1-yl]-amide]: the Ki was under 30000 nM.
Take `CCCC(=O)N1CCC(NS(=O)(=O)c2ccc(NC(=O)C3CCCN(C)C3)c3ccccc23)CC1` [Compound D-23, 1-Methyl-piperidine-3-carboxylic acid [4-(1-butyryl-piperidin-4-ylsulfamoyl)-naphthalen-1-yl]-ainde]: the Ki was under 30000 nM.
Same read-out and setting: then `CCCC(=O)N1CCC(NS(=O)(=O)c2ccc(NC(=O)C3CCN(C)CC3)c3ccccc23)CC1` [Compound D-24, 1-Methyl-piperidine-4-carboxylic acid [4-(1-butyryl-piperidin-4-ylsulfamoyl)-naphthalen-1-yl]-amide], with under 30000 nM.
For the compound `CCCC(=O)N1CCC(NS(=O)(=O)c2ccc(NC(=O)c3ccccc3C)c3c2CCCC3)CC1` [Compound E-1, N-[4-(1-Butyryl-piperidin-4-ylsulfamoyl)-5,6,7,8-tetrahydro-naphthalen-1-yl]-2-methyl-benzamide], the Ki was under 500 nM.
Regarding `O=C(Nc1ccc(S(=O)(=O)NC2CCCCC2)c2c1CCCC2)c1ccccc1` [Compound E-2, N-(4-Cyclohexylsulfamoyl-5,6,7,8-tetrahydro-naphthalen-1-yl)-benzamide], the Ki is under 500 nM.
The same measure, in the same setting: to `COc1ccc(NS(=O)(=O)c2ccc(NC(=O)c3ccccc3)c3c2CCCC3)cc1` [Compound E-3, N-[4-(4-Methoxy-phenylsulfamoyl)-5,6,7,8-tetrahydro-naphthalen-1-yl]-benzamide] belongs under 500 nM; to `CCOC(=O)N1CCC(NS(=O)(=O)c2ccc(NC(=O)c3ccccc3)c3c2CCCC3)CC1` [Compound E-4, 4-(4-Benzoylamino-5,6,7,8-tetrahydro-naphthalene-1-sulfonylamino)-piperidine-1-carboxylic acid ethyl ester], under 1000 nM.
Still for that read-out and setting: to `O=C(Nc1ccc(S(=O)(=O)NC2CCCCC2)c2c1CCCC2)C1CCCCC1` [Compound E-5, Cyclohexanecarboxylic acid (4-cyclohexylsuffamoyl-5,6,7,8-tetrahydro-naphthalen-1-yl)-amide] belongs under 500 nM.
On the same count and under the same terms, to `CCOC(=O)N1CCC(NS(=O)(=O)c2ccc(NC(=O)C3CCCCC3)c3c2CCCC3)CC1` [Compound E-6, 4-(4-(Cyclohexanecarbonyl-amino)-5,6,7,8-tetrahydro-naphthalene-1-sulfonylamino)-piperidine-1-carboxylic acid ethyl ester] belongs under 500 nM.
On to `CCOC(=O)N1CCC(NS(=O)(=O)c2ccc(NC(=O)c3ccccc3C)c3c2CCCC3)CC1` [Compound E-8, 4-[4-(2-Methyl-benzoylamino)-5,6,7,8-tetrahydro-naphthalene-1-sulfonylamino]-piperidine-1-carboxylic acid ethyl ester], for which the Ki is under 500 nM.
The same measure, in the same setting: then `Cc1ccccc1C(=O)Nc1ccc(S(=O)(=O)NC2CCCCC2)c2c1CCCC2` [Compound E-9, N-(4-Cyclohexylsulfamoyl-5,6,7,8-tetrahydro-naphthalen-1-yl)-2-methyl-benzamide], with under 500 nM; and `Cc1ccccc1C(=O)Nc1ccc(S(=O)(=O)NC2CCN(C(=O)N(C)C)CC2)c2c1CCCC2` [Compound E-10, 4-[4-(2-Methyl-benzoylamino)-5,6,7,8-tetrahydro-naphthalene-1-sulfonylamino]-piperidine-1-carboxylic acid dimethylamide], with under 500 nM.
With `Cc1ccccc1C(=O)Nc1ccc(S(=O)(=O)NC2CCN(C(=O)N3CCCC3)CC2)c2c1CCCC2` [Compound E-11, 2-Methyl-N-{4-[1-(pyrrolidine-1-carbonyl)-piperidin-4-ylsulfamoyl]-5,6,7,8-tetrahydro-naphthalen-1-yl}-benzamide], the Ki was under 500 nM.
Turning to `Cc1ccccc1C(=O)Nc1ccc(S(=O)(=O)NC2CCN(C(=O)C(C)C)CC2)c2c1CCCC2` [Compound E-12, N-[4-(1-Isobutyryl-piperidin-4-ylsulfamoyl)-5,6,7,8-tetrahydro-naphthalen-1-yl]-2-methyl-benzamide], the Ki was under 500 nM.
For `CCN(CC)C(=O)N1CCC(NS(=O)(=O)c2ccc(NC(=O)c3ccccc3C)c3c2CCCC3)CC1` [Compound E-14, 4-[4-(2-Methyl-benzoylamino)-5,6,7,8-tetrahydro-naphthalene-1-sulfonylamino]-piperidine-1-carboxylic acid diethylamide], the Ki was under 1000 nM.
The same measure, in the same setting: to `COC(=O)N1CCC(NS(=O)(=O)c2ccc(NC(=O)c3ccccc3C)c3c2CCCC3)CC1` [Compound E-15, 4-[4-(2-Methyl-benzoylamino)-5,6,7,8-tetrahydro-naphthalene-1-sulfonylamino]-piperidine-1-carboxylic acid methyl ester] belongs under 500 nM.

As a reminder, the Ki is the dissociation constant of the complex between target and ligand, obtained from inhibition or displacement.

Source of the values: patent US7491827B2, “Aryl sulfonamides useful as inhibitors of chemokine receptor activity” (Millennium Pharmaceuticals, Inc., priority 2003, dated 2009).
